According to ChEMBL document CHEMBL5346894, “Developments of PROTACs technology in immune-related diseases” (Eur J Med Chem, 2023):

How the values were obtained:
Jurkat = assay: Anticancer activity against human Jurkat cells assessed as cell growth inhibition; assay type: functional, cell-based
MOLT-4 = assay: Anticancer activity against human MOLT-4 cells assessed as cell growth inhibition; assay type: functional, cell-based
HL-60 = assay: Anticancer activity against human HL-60 cells assessed as cell growth inhibition; assay type: functional, cell-based
[1] = biological target: Receptor-interacting serine/threonine-protein kinase 2 (Homo sapiens, UniProt O43353); assay: Inhibition of RIPK2 (unknown origin) by fluorescence polarization assay
[2] = biological target: T1, von Hippel-Lindau disease tumor suppressor/Receptor-interacting serine/threonine-protein kinase 2 (Homo sapiens, UniProt O43353+P40337); assay: Protac activity at VHL/RIPK2 in human THP-1 cells assessed as RIPK2 degradation measured after 16 hrs by Western blot analysis; assay type: cell-based
[3] = biological target: T1, von Hippel-Lindau disease tumor suppressor/Receptor-interacting serine/threonine-protein kinase 2; assay: Protac activity at VHL/RIPK2 in human THP-1 cells assessed as RIPK2 degradation at 10 nM measured after 16 hrs by Western blot analysis relative to control; assay type: cell-based
[4] = biological target: Protein cereblon/Poly [ADP-ribose] polymerase 1 (Homo sapiens) (UniProt P09874+Q96SW2); assay: Protac activity at CRBN/PARP1 in human SW620 cells assessed as degradation of PARP1 at <100 nM measured after 24 hrs by Western blot analysis relative to control; assay type: cell-based
[5] = biological target: Protein cereblon/Indoleamine 2,3-dioxygenase 1 (Homo sapiens) (UniProt P14902+Q96SW2); assay: Protac activity at CRBN/IDO1 in human HeLa cell assessed as degradation of IDO1 measured after 24 hrs by Western blot assay relative to control; assay type: cell-based
[6] = biological target: Protein cereblon/Receptor-interacting serine/threonine-protein kinase 2 (Homo sapiens, UniProt O43353+Q96SW2); assay: Protac activity at CRBN/RIPK2 in human THP-1 cells assessed as degradation of RIPK2 measured after 18 hrs by capillary immunoassay; assay type: cell-based
[7] = biological target: Protein cereblon/Histone acetyltransferase KAT2A (Homo sapiens) (UniProt Q92830+Q96SW2); assay: Protac activity at CRBN/GCN5 in human THP-1 cells assessed as GCN5 degradation at 3 nM measured after 10 mins by Western blot analysis relative to control; assay type: cell-based
[8] = biological target: Protein cereblon/Histone acetyltransferase KAT2B (Homo sapiens) (UniProt Q92831+Q96SW2); assay: Protac activity at CRBN/PCAF in human THP-1 cells assessed as PCAF degradation at 1.5 nM measured after 10 mins by Western blot analysis relative to control; assay type: cell-based
[9] = biological target: von Hippel-Lindau disease tumor suppressor/Histone deacetylase 2/Lysine-specific histone demethylase 1A/REST corepressor 1 (Homo sapiens, UniProt O60341+P40337+Q92769+Q9UKL0); assay: Protac activity at VHL/LSD1/HDAC2/CoREST complex interaction in human ES1 cells assessed as induction of HDAC2 degradation by fluorescence based assay; assay type: cell-based
[10] = biological target: von Hippel-Lindau disease tumor suppressor/Histone deacetylase 1/Lysine-specific histone demethylase 1A/REST corepressor 1 (Homo sapiens, UniProt O60341+P40337+Q13547+Q9UKL0); assay: Protac activity at VHL/LSD1/HDAC1/CoREST complex interaction in human ES1 cells assessed as HDAC1 degradation by fluorescence based assay; assay type: cell-based
[11] = biological target: von Hippel-Lindau disease tumor suppressor/Histone deacetylase 3/Lysine-specific histone demethylase 1A/REST corepressor 1 (Homo sapiens, UniProt O15379+O60341+P40337+Q9UKL0); assay: Protac activity at VHL/LSD1/HDAC3/CoREST complex interaction in human ES1 cells assessed as induction of HDAC3 degradation by fluorescence based assay; assay type: cell-based
[12] = biological target: T2, von Hippel-Lindau disease tumor suppressor/Histone deacetylase 3 (Homo sapiens, UniProt O15379+P40337); assay: Protac activity at VHL/HDAC3 in human MDA-MB-468 cells assessed as HDAC3 degradation measured after 14 hrs by Western blot analysis; assay type: cell-based
[13] = biological target: T2, von Hippel-Lindau disease tumor suppressor/Histone deacetylase 3; assay: Protac activity at VHL/HDAC3 in human MDA-MB-468 cells assessed as HDAC3 degradation at 125 nM measured after 8 hrs by Western blot analysis relative to control; assay type: cell-based
[14] = biological target: E3 ubiquitin-protein ligase XIAP/Receptor-interacting serine/threonine-protein kinase 2 (Homo sapiens, UniProt P98170+O43353); assay: Protac activity at IAP/RIPK2 in human THP-1 cells assessed as degradation of RIPK2 measured after 18 hrs by capillary immunoassay; assay type: cell-based
[15] = biological target: von Hippel-Lindau disease tumor suppressor/Interleukin-1 receptor-associated kinase 4 (Homo sapiens, UniProt Q9NWZ3+P40337); assay: Protac activity at VHL/IRAK4 in human HEK293T cells assessed as IRAK4 degradation measured after 24 hrs by immunoblotting analysis; assay type: cell-based
Protein cereblon = Protein cereblon (Homo sapiens, UniProt Q96SW2); assay: Binding affinity to CRBN (unknown origin) assessed as dissociation constant by Tr-FRET assay
HeLa = assay: Anticancer activity against human HeLa cells assessed as cell growth inhibition measured after 24 hrs by MTT assay; assay type: functional, cell-based

Sequence of Protein cereblon (Q96SW2 whole entry): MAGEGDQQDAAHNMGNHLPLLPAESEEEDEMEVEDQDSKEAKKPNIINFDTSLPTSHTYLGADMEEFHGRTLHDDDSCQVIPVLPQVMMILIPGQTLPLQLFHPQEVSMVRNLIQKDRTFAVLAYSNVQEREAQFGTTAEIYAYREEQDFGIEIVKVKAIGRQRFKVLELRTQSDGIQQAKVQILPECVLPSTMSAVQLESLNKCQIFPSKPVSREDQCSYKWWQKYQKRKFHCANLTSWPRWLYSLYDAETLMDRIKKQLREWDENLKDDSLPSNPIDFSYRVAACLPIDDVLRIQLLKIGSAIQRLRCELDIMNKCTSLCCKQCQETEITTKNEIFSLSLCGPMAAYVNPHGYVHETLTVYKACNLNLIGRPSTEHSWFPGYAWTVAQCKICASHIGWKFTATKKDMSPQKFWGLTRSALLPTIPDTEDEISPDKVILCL
Sequence of Protein cereblon/Histone acetyltransferase KAT2A (Homo sapiens) (Q92830 2-837 limits assumed): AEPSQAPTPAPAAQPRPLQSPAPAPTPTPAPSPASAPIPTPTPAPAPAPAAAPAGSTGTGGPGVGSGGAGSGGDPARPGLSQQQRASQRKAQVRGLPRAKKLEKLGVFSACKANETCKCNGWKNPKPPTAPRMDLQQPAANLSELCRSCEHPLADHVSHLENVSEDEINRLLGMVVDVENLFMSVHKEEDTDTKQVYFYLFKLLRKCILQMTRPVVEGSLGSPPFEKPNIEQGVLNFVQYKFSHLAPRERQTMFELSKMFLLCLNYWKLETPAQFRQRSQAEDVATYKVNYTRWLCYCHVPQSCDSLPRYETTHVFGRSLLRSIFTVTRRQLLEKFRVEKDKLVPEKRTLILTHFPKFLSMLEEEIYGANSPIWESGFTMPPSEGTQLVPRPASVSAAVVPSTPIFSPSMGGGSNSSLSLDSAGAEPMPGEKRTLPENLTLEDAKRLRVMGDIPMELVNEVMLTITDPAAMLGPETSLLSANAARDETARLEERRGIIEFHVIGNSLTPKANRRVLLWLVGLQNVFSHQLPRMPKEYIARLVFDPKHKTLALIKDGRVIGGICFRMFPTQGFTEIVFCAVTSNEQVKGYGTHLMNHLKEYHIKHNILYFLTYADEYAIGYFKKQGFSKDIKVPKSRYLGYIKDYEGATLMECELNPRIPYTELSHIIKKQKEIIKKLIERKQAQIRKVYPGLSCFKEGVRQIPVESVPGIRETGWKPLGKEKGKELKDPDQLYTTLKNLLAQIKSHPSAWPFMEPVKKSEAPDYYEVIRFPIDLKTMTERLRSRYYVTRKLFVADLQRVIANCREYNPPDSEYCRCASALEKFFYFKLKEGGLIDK
Sequence of Protein cereblon/Histone acetyltransferase KAT2A (Homo sapiens) (Q96SW2 whole entry partner): as the sequence (Q96SW2 whole entry) above
Sequence of Protein cereblon/Poly [ADP-ribose] polymerase 1 (Homo sapiens) (P09874 2-1014 limits assumed): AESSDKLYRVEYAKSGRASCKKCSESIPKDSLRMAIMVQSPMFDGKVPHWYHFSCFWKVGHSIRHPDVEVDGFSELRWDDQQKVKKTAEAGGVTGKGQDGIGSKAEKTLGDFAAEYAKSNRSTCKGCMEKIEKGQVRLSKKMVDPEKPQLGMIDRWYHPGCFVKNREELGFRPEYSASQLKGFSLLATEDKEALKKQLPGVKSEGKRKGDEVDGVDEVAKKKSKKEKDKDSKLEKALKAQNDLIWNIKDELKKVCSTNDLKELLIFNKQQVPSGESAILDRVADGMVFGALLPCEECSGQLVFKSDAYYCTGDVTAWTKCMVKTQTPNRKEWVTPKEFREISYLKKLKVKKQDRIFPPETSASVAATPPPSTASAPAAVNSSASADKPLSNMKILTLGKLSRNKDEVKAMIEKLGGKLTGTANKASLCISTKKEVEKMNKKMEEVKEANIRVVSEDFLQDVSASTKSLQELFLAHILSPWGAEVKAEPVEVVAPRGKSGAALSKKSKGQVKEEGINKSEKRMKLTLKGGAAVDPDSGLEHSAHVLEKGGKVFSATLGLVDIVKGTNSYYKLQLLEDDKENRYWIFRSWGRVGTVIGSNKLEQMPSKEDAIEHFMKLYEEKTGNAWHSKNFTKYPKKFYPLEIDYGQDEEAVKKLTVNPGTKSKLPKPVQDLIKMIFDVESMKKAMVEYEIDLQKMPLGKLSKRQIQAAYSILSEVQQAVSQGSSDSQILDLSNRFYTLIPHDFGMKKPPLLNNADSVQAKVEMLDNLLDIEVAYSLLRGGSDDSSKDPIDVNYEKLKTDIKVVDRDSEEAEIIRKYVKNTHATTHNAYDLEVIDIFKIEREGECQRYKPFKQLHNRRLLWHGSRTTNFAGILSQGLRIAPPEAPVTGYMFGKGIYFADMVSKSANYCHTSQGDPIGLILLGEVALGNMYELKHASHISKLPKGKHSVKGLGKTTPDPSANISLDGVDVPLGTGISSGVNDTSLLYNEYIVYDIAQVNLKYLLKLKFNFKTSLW
Sequence of Protein cereblon/Poly [ADP-ribose] polymerase 1 (Homo sapiens) (Q96SW2 whole entry partner): as the sequence (Q96SW2 whole entry) above
Sequence of von Hippel-Lindau disease tumor suppressor/Histone deacetylase 2/Lysine-specific histone demethylase 1A/REST corepressor 1 (P40337 whole entry, looked up, other chains not shown): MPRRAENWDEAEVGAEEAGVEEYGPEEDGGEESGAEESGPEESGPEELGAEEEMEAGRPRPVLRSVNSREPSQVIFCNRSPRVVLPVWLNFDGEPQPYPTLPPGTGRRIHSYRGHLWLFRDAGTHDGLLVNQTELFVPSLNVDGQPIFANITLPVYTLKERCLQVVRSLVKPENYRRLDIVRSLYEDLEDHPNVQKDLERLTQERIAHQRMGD
Sequence of von Hippel-Lindau disease tumor suppressor/Histone deacetylase 2/Lysine-specific histone demethylase 1A/REST corepressor 1 (Q92769 whole entry, looked up, other chains not shown): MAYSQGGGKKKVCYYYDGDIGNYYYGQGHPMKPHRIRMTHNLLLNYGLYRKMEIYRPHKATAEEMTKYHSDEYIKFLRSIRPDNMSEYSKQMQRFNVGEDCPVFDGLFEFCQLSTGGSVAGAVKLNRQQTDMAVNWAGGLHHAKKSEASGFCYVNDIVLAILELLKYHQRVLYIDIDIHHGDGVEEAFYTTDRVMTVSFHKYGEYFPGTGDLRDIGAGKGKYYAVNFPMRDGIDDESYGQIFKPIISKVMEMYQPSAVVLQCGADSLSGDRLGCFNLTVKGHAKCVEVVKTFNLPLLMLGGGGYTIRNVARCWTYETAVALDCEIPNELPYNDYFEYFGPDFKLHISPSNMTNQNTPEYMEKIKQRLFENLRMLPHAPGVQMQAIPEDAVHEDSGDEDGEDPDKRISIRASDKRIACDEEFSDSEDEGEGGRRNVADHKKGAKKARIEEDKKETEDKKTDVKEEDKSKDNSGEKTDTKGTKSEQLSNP
Sequence of von Hippel-Lindau disease tumor suppressor/Histone deacetylase 2/Lysine-specific histone demethylase 1A/REST corepressor 1 (Q9UKL0 whole entry, looked up, other chains not shown): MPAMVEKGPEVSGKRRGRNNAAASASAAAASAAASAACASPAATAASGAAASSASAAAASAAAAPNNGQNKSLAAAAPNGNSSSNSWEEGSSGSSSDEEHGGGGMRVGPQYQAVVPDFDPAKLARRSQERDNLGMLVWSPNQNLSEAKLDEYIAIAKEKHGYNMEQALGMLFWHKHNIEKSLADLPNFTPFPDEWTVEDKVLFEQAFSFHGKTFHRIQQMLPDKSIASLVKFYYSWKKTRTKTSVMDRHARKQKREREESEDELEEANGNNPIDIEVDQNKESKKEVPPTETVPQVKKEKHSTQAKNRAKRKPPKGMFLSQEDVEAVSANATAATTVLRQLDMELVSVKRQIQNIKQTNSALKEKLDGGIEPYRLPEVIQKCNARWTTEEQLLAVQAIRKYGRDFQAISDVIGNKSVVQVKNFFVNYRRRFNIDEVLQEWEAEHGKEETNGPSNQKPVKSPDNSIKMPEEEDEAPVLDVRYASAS
Sequence of von Hippel-Lindau disease tumor suppressor/Histone deacetylase 1/Lysine-specific histone demethylase 1A/REST corepressor 1 (P40337 whole entry, looked up, other chains not shown): as the sequence (P40337 whole entry, looked up, other chains not shown) above
Sequence of von Hippel-Lindau disease tumor suppressor/Histone deacetylase 1/Lysine-specific histone demethylase 1A/REST corepressor 1 (Q13547 whole entry, looked up, other chains not shown): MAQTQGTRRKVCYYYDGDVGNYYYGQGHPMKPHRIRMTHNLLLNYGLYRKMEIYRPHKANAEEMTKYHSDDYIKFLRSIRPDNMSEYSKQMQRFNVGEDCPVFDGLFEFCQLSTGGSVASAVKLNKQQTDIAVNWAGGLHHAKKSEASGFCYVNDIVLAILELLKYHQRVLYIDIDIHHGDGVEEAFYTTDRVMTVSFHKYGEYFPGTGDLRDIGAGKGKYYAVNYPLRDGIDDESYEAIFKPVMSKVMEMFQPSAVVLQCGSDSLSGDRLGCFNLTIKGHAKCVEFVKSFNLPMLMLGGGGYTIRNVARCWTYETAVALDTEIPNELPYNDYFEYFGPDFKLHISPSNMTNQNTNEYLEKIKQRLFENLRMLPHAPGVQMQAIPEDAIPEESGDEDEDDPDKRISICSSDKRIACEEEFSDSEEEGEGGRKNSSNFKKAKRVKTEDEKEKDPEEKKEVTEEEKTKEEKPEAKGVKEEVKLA
Sequence of von Hippel-Lindau disease tumor suppressor/Histone deacetylase 1/Lysine-specific histone demethylase 1A/REST corepressor 1 (Q9UKL0 whole entry, looked up, other chains not shown): as the sequence (Q9UKL0 whole entry, looked up, other chains not shown) above

O=C(/C=C/c1cccnc1)NCCCCC1CCN(C(=O)c2ccc(N3CCN(CCCCCC#Cc4cccc5c4CN(C4CCC(=O)NC4=O)C5=O)CC3)cc2)CC1 (stereo not given)
IC50 (Jurkat): 4.46 nM | IC50 (MOLT-4): 2.96 nM | IC50 (HL-60): 8.56 nM

C=C([C@@H](NC(=O)COCCOCCOCCOCCOc1cc2nccc(Nc3ccc4scnc4c3)c2cc1S(=O)(=O)C(C)(C)C)C(C)(C)C)N1C[C@H](O)C[C@H]1C(=O)NCc1ccc(-c2scnc2C)cc1
IC50 [1]: 10 nM | DC50 [2]: 1.4 nM | Emax [3]: > 95%

O=C1CCC(N2Cc3c(NCCCCCCCCCCCNC(=O)c4cc(Cc5n[nH]c(=O)c6ccccc56)ccc4F)cccc3C2=O)C(=O)N1 (stereo not given)
Activity [4]: 80%

O=C1CCC(N2C(=O)c3cccc(NCCOCCOCCOCCOCCOCCOCCOCCNCCNc4nonc4/C(=N/O)Nc4ccc(F)c(Br)c4)c3C2=O)C(=O)N1 (stereo not given)
Emax [5]: 93%

CC(C)(C)S(=O)(=O)c1cc2c(Nc3ccc4scnc4c3)ccnc2cc1OCCOCCOCCOCCOCC(=O)Nc1cccc2c1CN(C1CCC(=O)NC1=O)C2=O (stereo not given)
DC50 [6]: 2.5 nM

CN1C[C@H](Nc2cnn(C)c(=O)c2Br)C[C@H](c2ccc(C(=O)N(C)CCCN(C)c3ccc(CCCOc4cccc5c4C(=O)N(C4CCC(=O)NC4=O)C5=O)cc3)cc2)C1 (stereo not given in full)
Activity [7]: 50% | Activity [8]: 50%

Cc1ncsc1-c1ccc(CNC(=O)[C@@H]2C[C@@H](O)CN2C(=O)[C@@H](NC(=O)CCCCCCCCCCC(=O)Nc2ccc(C(=O)Nc3ccccc3N)cc2)C(C)(C)C)cc1
IC50 [9]: 500 nM | IC50 [10]: 500 nM | IC50 [11]: 500 nM

CCCNNC(=O)c1ccc(-c2ccc(NC(=O)CCCCCCC(=O)N[C@H](C(=O)N3C[C@H](O)C[C@H]3C(=O)N[C@@H](C)c3ccc(-c4scnc4C)cc3)C(C)(C)C)cc2)cc1
DC50 [12]: 42 nM | Activity [13]: 70%

CN[C@@H](C)C(=O)N[C@H](C(=O)N1Cc2cc(OCCOCCOCCOCCOc3cc4nccc(Nc5ccc6scnc6c5)c4cc3S(=O)(=O)C(C)(C)C)ccc2C[C@H]1C(=O)N[C@@H]1CCCc2ccccc21)C(C)(C)C
DC50 [14]: 2 nM

CC(C)Nc1cc(-n2ccc3cc(C#N)cnc32)ncc1C(=O)N[C@H]1CC[C@H](C(=O)NCCOCCNC(=O)COc2cccc3c2C(=O)N(C2CCC(=O)NC2=O)C3=O)CC1 (stereo not given in full)
DC50 [15]: 405 nM | Kd (Protein cereblon): 490 nM

CC1(NCc2cn(CCOCCOCCOCCOCCNc3cccc4c3C(=O)N(C3CCC(=O)NC3=O)C4=O)nn2)CCN(c2cnc(-c3cccc(Cl)c3Cl)c(N)n2)CC1 (stereo not given)
IC50 (HeLa): 4.3 nM
